# Laboratory results: PMC12216184 (Nature Communications, 2025)
# Non-standard residues stand in square brackets, D forms with d. No end group written: not given here.
# How the values were obtained:
# FOXO4^CR3 = test: 1H,15N HSQC NMR titration of 15N-labeled FOXO4^CR3 (CSP); assay type: binding, human; settings: 15N-labeled FOXO4^CR3, NMR titration with p53^DBD
# Method: (§1) All NMR spectra were recorded at 298 K either on a 700 MHz Bruker Avance III NMR spectrometer equipped with a TCI cryoprobe or on a 600 MHz Bruker Avance Neo NMR spectrometer equipped with a TXI 600S3 probehead at 298 K. All samples were in 50 mM NaH2PO4/Na2HPO4, pH 7.5 and 10 % D2O was added for the lock. Chemical shifts of the recombinant FOXO4-LRI were assigned using the following three-dimensional spectra: HNCACB, CBCA(CO)NH, (HN)N(CA)NNH, HN(NCA)NNH and (H)CC(CO)NH.
# (§2) The CSPs were calculated according to the following equation:1 CSP=δH^2+ΔδN^2/7 where ΔδH and ΔδN indicate the chemical shift changes of the amide proton and nitrogen, respectively, using CcpNMR 2.5[49].
# p53^1–94 [1] = test: 1H,15N HSQC NMR titration of 15N-labeled p53^1–94 (CSP); assay type: binding, human; settings: 15N-labeled p53^1–94, NMR titration
# Method: as §1, §2
# [2] = test system: endogenous p53 versus p53^ΔTAD2 in RPE-1 cells; test: Pull-down of endogenous p53 versus p53^ΔTAD2 from RPE-1 cells; assay type: binding, human; settings: biotinylated bait (26 µM FOXO-FH or 125 µM biotinylated peptide CLO4201) on streptavidin agarose, 1 mg/mL RPE-1 lysate, 4 °C, Western blot, triplicates
# Source text: Then, cells were selected by blasticidin for 10 days. Cells, which were expressing 3HA-GFP-miniturbo, p53-3HA-GFP-miniturbo-p53 and p53-Δtad2-3HA-GFP-miniturbo were sorted by FACS using GFP (Supplementary Fig. 17).
# p53 mutant human TERT-immortalized retinal pigment epithelial 1 (RPE1) cells (RPE1 TP53^−/−; denoted RPE-1 p53KO) cells were kindly provided by Joanna Loizou (CeMM Research Center for Molecular Medicine of the Austrian Academy of Sciences, Vienna, Austria)[48]. […] For the preparation of cell lysates for pull down experiments, cells were grown to confluence and incubated with 10 µM Etoposide (Sigma) for 24 h. Cells were harvested in ice cold PBS pH 7.4 and lysed in lysis buffer (10 mM Tris pH 7.4, 1% IGEPAL®CA-630, 0.1% SDS, 140 mM NaCl, 2 mM MgCl2) supplemented with protease inhibitor cocktail, Benzonase (Merck Millipore) and RNase (molecular biology, Thermo Fisher). Samples were incubated on ice for 20 min, lysed by sonication and centrifuged for 15 min at 24,104 g and 4 °C. Pellets were discarded. Protein amount of lysates was determined by BCA protein assay. Lysates were then diluted to a protein concentration of 1 mg/mL in ice-cold dilution buffer (10 mM Tris pH 7.4, 1% IGEPAL®CA-630, 0.1% SDS, 140 mM NaCl, 2 mM EDTA) supplemented with protease inhibitor cocktail. […]
# p53^1–94 [3] = test: NMR secondary chemical shifts and relaxation (15N{1H} NOE, R1, R2) of p53^1–94; assay type: binding, human; settings: 300 µM p53^1–94 with 400 µM ligand, pH 7.5
# Method: Data analysis von R1 and R1ρ measurements were performed using CcpNMR 2.5[49]. As fitting function, the following equation was used2 Mzt=M0^−Rit+C where Mz(t) is the longitudinal relaxation at the recovery delay time t, M0 is the equilibrium magnetization and Ri is either the longitudinal relaxation rate R1 or R1ρ. The transverse relaxation in the rotating frame R1ρ was then converted to R2 as described previously[50],[51] using the formula3 R1ρ=R1cos^2θ+R2sin^2θ in which θ = arctan(1/Ω) is the tilt angle between the static magnetic field and the effective field in the rotating frame.
# [4] = molecular target: N-terminal p53 region from amino acids 1 to 94 (p53^1-94) (human) (UniProt P04637); test: ITC
# [5] = molecular target: p53^TAD2 (residues 37-57), synthetic peptide (human) (UniProt P04637); test: ITC
# [6] = molecular target: p53^TAD2 phosphorylated at Ser46 (human) (UniProt P04637); test: ITC
# [7] = molecular target: p53^TAD2 phosphorylated at Ser46 and Thr55 (human) (UniProt P04637); test: ITC
# [8] = molecular target: p53^TAD2 phosphorylated at Thr55 (human) (UniProt P04637); test: ITC
# FOXO4^FH = test: 1H,15N HSQC NMR titration of 15N-labeled FOXO4^FH (CSP); assay type: binding, human; settings: one equivalent of phosphopeptide versus p53^TAD2, 15N-labeled FOXO4^FH
# Method: as §1, §2
# p53^1-94 = molecular target: T1, p53^1-94 (Homo sapiens, UniProt P04637); test: ITC, p53^1-94; assay type: binding
# T1 construct: His6-protein A (TEV cleavage site) (cleaved yes); made in house; host or cells: Escherichia coli BL21-DE3 Star
# p53^TAD2 = molecular target: T2, p53^TAD2 (Homo sapiens, UniProt P04637); test: ITC, p53^TAD2; assay type: binding
# T2 construct: purchased Peptide Specialty Laboratories GmbH
# p53^TAD2pS46 = molecular target: T3, p53^TAD2pS46 (Homo sapiens, UniProt P04637); test: ITC, p53^TAD2pS46; assay type: binding
# T3 construct: purchased Peptide Specialty Laboratories GmbH
# p53^TAD2pT55 = molecular target: T4, p53^TAD2pT55 (Homo sapiens, UniProt P04637); test: ITC, p53^TAD2pT55; assay type: binding
# T4 construct: purchased Peptide Specialty Laboratories GmbH
# p53^TAD2pS46T55 = molecular target: T5, p53^TAD2pS46T55 (Homo sapiens, UniProt P04637); test: ITC, p53^TAD2pS46T55; assay type: binding
# T5 construct: purchased Peptide Specialty Laboratories GmbH
# T5 sequence (P04637 37-57): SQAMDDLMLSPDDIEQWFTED
# N-terminal p53 region from amino acids 1 to 94 (p53^1-94) (human), sequence (P04637 1-94): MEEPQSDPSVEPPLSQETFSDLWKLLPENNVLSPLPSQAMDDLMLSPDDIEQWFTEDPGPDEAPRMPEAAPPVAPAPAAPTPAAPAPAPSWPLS
# T1 sequence (P04637 1-94): as above
substance,measurement,setting,value
"p53^DBD: human p53 DNA-binding domain fragment, amino acids 94–312",most affected residues of FOXO4^CR3 (CSP),FOXO4^CR3,between FOXO4 amino acids 473 and 491
"FOXO4^FH: FOXO4 forkhead domain fragment, amino acids 86–208",most affected residues of p53 (CSP),p53^1–94 [1],region from amino acids 45 to 57
same,pull-down of endogenous p53 versus p53^ΔTAD2,[2],higher amounts of endogenous p53 versus p53^ΔTAD2
same,15N{1H} NOE change,p53^1–94 [3],increased substantially in the presence of FOXO4^FH
same,R1 relaxation rate change,p53^1–94 [3],highly similar
"FOXO4-DRI (D-retro-inverso cell-penetrating peptide derived from the FOXO4 FH domain, fused to HIV-TAT)",dH,[4],5.9 kcal/mol
same,stoichiometry N,[4],0.9
same,dH,[5],0.2 kcal/mol
same,stoichiometry N,[5],0.9
same,dH,[6],-1.8 kcal/mol
same,stoichiometry N,[6],0.71
same,dH,[7],-4.5 kcal/mol
same,stoichiometry N,[7],1.11
same,dH,[8],-4.7 kcal/mol
same,stoichiometry N,[8],0.74
p53^TAD2pT55: p53^TAD2 peptide phosphorylated at Thr55,effect of phosphorylation on CSPs of FOXO4^FH,FOXO4^FH,stronger CSPs
p53^TAD2pS46: p53^TAD2 peptide phosphorylated at Ser46,effect of phosphorylation on CSPs of FOXO4^FH,FOXO4^FH,stronger CSPs
[dL][dT][dL][dR][dK][dE][dP][dA][dS][dE][dI][dA][dQ][dS][dI][dL][dE][dA][dY][dS][dQ][dN]G[dW][dA][dN][dR][dR][dS]GG[dK][dR][dP][dP][dP][dR][dR][dR][dQ][dR][dR][dK][dK][dR]G [FOXO4-DRI],Kd,p53^1-94,0.4 ± 0.3 µM
same,Kd,p53^TAD2,18.5 ± 3.6 µM
same,Kd,p53^TAD2pS46,10.5 ± 1.5 µM
same,Kd,p53^TAD2pT55,5.8 ± 1.2 µM
same,Kd,p53^TAD2pS46T55,4.9 ± 0.3 µM
